In patent publication US8614223B2, “Pyrimidine hydroxy amide compounds as protein deacetylase inhibitors and methods of use thereof” (Acetylon Pharmaceuticals, Inc., priority 2010, dated 2013):

How the values were obtained:
[1] = target: HDAC6 (Homo sapiens (Human), UniProt Q9UBN7); conditions: read-out: HDAC6 IC50
[2] = target: HDAC3 (Homo sapiens (Human), UniProt O15379); test: HDAC enzyme assay, HDAC3; conditions: for HDAC3 fold over HDAC6 IC50 (selectivity for HDAC6): ratio HDAC3/HDAC6; for IC50: read-out: HDAC3 IC50
[3] = target: HDAC2 (Homo sapiens (Human), UniProt Q92769); test: HDAC enzyme assay, HDAC2; conditions: for HDAC2 fold over HDAC6 IC50 (selectivity for HDAC6): ratio HDAC2/HDAC6; for IC50: read-out: HDAC2 IC50
[4] = target: HDAC1 (Homo sapiens (Human), UniProt Q13547); test: HDAC enzyme assay, HDAC1; conditions: for HDAC1 fold over HDAC6 IC50 (selectivity for HDAC6): ratio HDAC1/HDAC6; for IC50: read-out: HDAC1 IC50
Sequence of HDAC1 (Q13547 whole entry): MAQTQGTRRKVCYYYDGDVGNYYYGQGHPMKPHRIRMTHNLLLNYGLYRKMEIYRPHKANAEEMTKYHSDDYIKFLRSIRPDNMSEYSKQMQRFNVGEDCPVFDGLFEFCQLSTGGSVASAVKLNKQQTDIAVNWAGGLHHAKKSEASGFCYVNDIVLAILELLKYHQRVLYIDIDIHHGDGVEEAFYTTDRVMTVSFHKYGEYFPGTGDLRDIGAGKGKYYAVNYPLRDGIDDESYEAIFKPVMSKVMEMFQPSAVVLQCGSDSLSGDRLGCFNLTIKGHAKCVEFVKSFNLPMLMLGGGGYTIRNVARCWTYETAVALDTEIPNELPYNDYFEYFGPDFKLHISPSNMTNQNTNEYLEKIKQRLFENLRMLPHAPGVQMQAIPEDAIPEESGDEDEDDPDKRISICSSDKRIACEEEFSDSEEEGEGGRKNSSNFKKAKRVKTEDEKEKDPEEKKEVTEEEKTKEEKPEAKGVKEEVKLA

Sequence of HDAC3 (O15379 whole entry): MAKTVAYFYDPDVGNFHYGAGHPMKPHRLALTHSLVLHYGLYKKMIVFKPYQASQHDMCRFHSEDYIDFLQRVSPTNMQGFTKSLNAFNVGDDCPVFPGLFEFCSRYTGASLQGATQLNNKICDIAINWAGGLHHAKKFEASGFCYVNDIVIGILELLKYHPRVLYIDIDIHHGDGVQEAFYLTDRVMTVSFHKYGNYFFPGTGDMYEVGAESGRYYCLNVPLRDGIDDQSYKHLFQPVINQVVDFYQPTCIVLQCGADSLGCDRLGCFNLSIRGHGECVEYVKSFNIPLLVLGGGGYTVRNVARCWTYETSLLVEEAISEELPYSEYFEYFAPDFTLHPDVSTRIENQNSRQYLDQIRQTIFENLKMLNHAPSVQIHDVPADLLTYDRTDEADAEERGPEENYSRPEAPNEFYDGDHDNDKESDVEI
Sequence of HDAC3 (Q9Y618 395-489 partner): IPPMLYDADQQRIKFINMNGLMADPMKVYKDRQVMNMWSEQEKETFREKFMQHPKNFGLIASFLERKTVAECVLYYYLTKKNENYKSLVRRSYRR
Sequence of HDAC2 (Q92769 whole entry): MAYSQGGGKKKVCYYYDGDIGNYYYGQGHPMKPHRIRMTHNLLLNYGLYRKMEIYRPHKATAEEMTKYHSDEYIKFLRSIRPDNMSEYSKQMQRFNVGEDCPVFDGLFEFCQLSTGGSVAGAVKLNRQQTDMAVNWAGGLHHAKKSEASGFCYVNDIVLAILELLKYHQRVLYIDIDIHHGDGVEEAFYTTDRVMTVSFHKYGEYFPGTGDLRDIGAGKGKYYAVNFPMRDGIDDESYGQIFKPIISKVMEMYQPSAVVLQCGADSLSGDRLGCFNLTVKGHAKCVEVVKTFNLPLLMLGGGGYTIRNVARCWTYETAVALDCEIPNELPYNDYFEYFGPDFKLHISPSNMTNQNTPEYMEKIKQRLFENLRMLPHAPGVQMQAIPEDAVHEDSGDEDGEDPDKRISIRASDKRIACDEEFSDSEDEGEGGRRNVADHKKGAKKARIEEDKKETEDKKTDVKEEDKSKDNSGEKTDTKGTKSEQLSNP
Sequence of HDAC6 (Q9UBN7 whole entry): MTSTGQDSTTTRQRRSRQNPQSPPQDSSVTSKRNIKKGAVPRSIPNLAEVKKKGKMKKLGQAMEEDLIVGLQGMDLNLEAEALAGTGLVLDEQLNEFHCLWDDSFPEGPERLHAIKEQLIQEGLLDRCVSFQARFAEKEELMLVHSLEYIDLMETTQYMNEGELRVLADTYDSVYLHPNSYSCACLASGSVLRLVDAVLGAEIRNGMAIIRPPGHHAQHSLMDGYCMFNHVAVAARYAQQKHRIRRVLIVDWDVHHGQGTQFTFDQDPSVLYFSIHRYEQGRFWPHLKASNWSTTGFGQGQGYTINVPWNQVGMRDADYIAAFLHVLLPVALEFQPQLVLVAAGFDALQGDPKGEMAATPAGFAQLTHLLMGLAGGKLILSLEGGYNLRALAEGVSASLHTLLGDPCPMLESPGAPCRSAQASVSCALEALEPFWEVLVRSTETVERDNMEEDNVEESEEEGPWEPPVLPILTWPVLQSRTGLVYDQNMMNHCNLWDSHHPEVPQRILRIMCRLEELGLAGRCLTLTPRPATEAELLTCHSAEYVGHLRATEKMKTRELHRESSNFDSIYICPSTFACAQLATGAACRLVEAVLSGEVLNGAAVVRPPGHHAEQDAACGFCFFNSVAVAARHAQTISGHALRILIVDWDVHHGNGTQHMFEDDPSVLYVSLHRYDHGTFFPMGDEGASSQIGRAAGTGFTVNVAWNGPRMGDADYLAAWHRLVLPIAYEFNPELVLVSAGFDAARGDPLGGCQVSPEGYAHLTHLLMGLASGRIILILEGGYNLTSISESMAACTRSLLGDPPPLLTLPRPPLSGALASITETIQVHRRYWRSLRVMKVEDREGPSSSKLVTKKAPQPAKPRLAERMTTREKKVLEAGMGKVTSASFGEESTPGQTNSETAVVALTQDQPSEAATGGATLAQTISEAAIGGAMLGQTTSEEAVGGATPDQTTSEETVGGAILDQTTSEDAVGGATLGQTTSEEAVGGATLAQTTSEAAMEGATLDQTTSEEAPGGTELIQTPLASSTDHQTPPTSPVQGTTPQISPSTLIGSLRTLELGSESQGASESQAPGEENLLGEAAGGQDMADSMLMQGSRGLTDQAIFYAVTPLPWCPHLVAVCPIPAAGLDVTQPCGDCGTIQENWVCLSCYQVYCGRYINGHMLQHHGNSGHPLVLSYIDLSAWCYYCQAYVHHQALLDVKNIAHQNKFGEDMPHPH

SMILES	IC50 [1] [µM]	HDAC3 fold over HDAC6 IC50 (selectivity for HDAC6) [2]	IC50 [2] [µM]	HDAC2 fold over HDAC6 IC50 (selectivity for HDAC6) [3]	IC50 [3] [µM]	HDAC1 fold over HDAC6 IC50 (selectivity for HDAC6) [4]	IC50 [4] [µM]
CC(C)(Nc1ncc(C(=O)NO)cn1)c1ccc(F)cc1F [Compound 70]	0.003	(441.9x)	1.31	(327.2x)	0.972	(217.2x)	0.645
Cc1cc(F)ccc1C(C)(C)Nc1ncc(C(=O)NO)cn1 [Compound 72]	0.019	(656.2x)	12.3	(427.2x)	8.01	(306.9x)	5.75
CC(C)(Nc1ncc(C(=O)NO)cn1)c1ccc(C(F)(F)F)cc1 [Compound 74]	0.006	(394.2x)	2.38	(168.4x)	1.02	(147.5x)	0.889
CC(C)(Nc1ncc(C(=O)NO)cn1)c1cccc(F)c1 [Compound 75]	0.003	(616.6x)	1.88	(316.3x)	0.966	(374.2x)	1.14
CC(C)(Nc1ncc(C(=O)NO)cn1)c1ccc(F)c(F)c1 [Compound 76]	0.004	(260x)	1.06	(149.7x)	0.609	(153.3x)	0.624
O=C(NO)c1cnc(NCc2cnccn2)nc1 [Compound 77]	0.004	(98.1x)	0.434	(76.9x)	0.34	(74x)	0.328
Cc1cc(C(C)(C)Nc2ncc(C(=O)NO)cn2)ccc1F [Compound 78]	0.004	(304.6x)	1.33	(153.6x)	0.669	(137.3x)	0.598
CC(Nc1ncc(C(=O)NO)cn1)(c1ccccc1)c1ccccc1 [Compound 79]	0.006	(817.2x)	4.68	(319.8x)	1.83	(221.6x)	1.27
CC(C)(Nc1ncc(C(=O)NO)cn1)c1ccc(Cl)c(Cl)c1 [Compound 80]	0.002	(100.3x)	0.212	(60.2x)	0.127	(40.4x)	0.085
O=C(NO)c1cnc(NC2(c3ccc(F)cc3)CC2)nc1 [Compound 81]	0.003	(46.4x)	0.12	(30.2x)	0.078	(18.3x)	0.047
CC(C)(Nc1ncc(C(=O)NO)cn1)c1ccc(Cl)cc1F [Compound 83]	0.003	(289x)	0.928	(140.9x)	0.452	(139.2x)	0.447
O=C(NO)c1cnc(NC2(c3ccccc3)CCCCC2)nc1 [Compound 84]	0.007	(613x)	4.51	(403.4x)	2.97	(302.2x)	2.23
CC(Nc1ncc(C(=O)NO)cn1)c1ccncc1 (stereo not drawn) [Compound 85]	0.004	(36.9x)	0.135	(26.2x)	0.096	(18.1x)	0.067
CC(C)(Nc1ncc(C(=O)NO)cn1)c1ccc(C(F)(F)F)cc1F [Compound 86]	0.013	(221.2x)	2.89	(98.9x)	1.29	(60.3x)	0.788
O=C(NO)c1cnc(NC2(c3ccccc3)CCCC2)nc1 [Compound 88]	0.003	(679.1x)	2.24	(296.1x)	0.978	(215.2x)	0.711
O=C(NO)c1cnc(NC(c2ccc(F)cc2)c2ccc(F)cc2)nc1 [Compound 89]	0.003	(158.8x)	0.549	(78.1x)	0.27	(64.4x)	0.223
O=C(NO)c1cnc(NC2(c3ccccc3Cl)CC2)nc1 [Compound 90]	0.001	(30.2x)	0.041	(26.2x)	0.036	(19.9x)	0.027
O=C(NO)c1cnc(NC2(c3ccccc3C(F)(F)F)CC2)nc1 [Compound 91]	0.002	(169.4x)	0.374	(130.2x)	0.288	(72.3x)	0.16
CC(C)(Nc1ncc(C(=O)NO)cn1)c1cc(C(F)(F)F)cc(C(F)(F)F)c1 [Compound 92]	0.033	(134.4x)	4.42	(68x)	2.23	(41.3x)	1.36
Cc1ccc(C2(Nc3ncc(C(=O)NO)cn3)CC2)cc1 [Compound 93]	0.003	(51x)	0.157	(34.7x)	0.107	(25.9x)	0.08
O=C(NO)c1cnc(NC2(c3ccccc3)CCOCC2)nc1 [Compound 95]	0.003	(685x)	2.27	(217.7x)	0.722	(176.7x)	0.586
CC(Nc1ncc(C(=O)NO)cn1)(c1ccc(F)cc1)c1ccc(F)cc1 [Compound 96]	0.009	(662.8x)	5.71	(286.2x)	2.46	(271.8x)	2.34
O=C(NO)c1cnc(NC2(c3ccco3)CC2)nc1 [Compound 99]	0.004	(81.5x)	0.345	(75.6x)	0.32	(47.3x)	0.2
O=C(NO)c1cnc(NC2(c3ccc(F)cc3)CCCCC2)nc1 [Compound 100]	0.009	(1428.4x)	13.5	(504.7x)	4.76	(339.9x)	3.21
O=C(NO)c1cnc(NC2(c3cccc(F)c3)CCCCC2)nc1 [Compound 101]	0.007	(1498.8x)	11.2	(343.2x)	2.57	(283.5x)	2.12
O=C(NO)c1cnc(NC2(c3cc4ccccc4s3)CC2)nc1 [Compound 102]	0.002	(18x)	0.033	(11.3x)	0.021	(7.4x)	0.013
O=C(NO)c1cnc(NC2CCCCC2)nc1 [Compound 103]	0.046	(23.9x)	1.1	(18.1x)	0.832	(12.6x)	0.578
O=C(NO)c1cnc(NC2CCOCC2)nc1 [Compound 104]	0.049	(24x)	1.17	(24.1x)	1.17	(16.7x)	0.813
O=C(NO)c1cnc(NCc2cccs2)nc1 [Compound 105]	0.004	(92x)	0.361	(92.1x)	0.361	(54.5x)	0.214
O=C(NO)c1cnc(NCc2cccnc2)nc1 [Compound 106]	0.004	(47.7x)	0.174	(36.5x)	0.133	(25.3x)	0.092
